Columns and labels:
[1] = manufacturer's prescribing information (Mar. 2007 revision); cited from earlier work
[2] = tested on: subjects with type 1 diabetes; experiment: 52-week randomized controlled clinical trial, basal insulin + prandial TI Inhalation Powder versus basal insulin + SC insulin aspart; format: in vivo, human; conditions: with basal insulin glargine
Description: This was a prospective, multi-country, multicenter, open label, randomized, controlled clinical trial comparing glycemic control in subjects with type 1 diabetes receiving basal insulin and prandial insulin-FDKP (TI) Inhalation Powder (TI Inhalation Powder group) with subjects receiving basal insulin and SC rapid-acting insulin aspart (comparator group). This study included a 52-week treatment phase and a 4-week follow- up phase. During the 4-week follow-up phase, pulmonary function and select clinical laboratory assessments were scheduled.
The study began with enrollment at Week−3. Subjects received a complete battery of safety and eligibility assessments, including HbA1c and fasting plasma glucose (FPG).
At Week−1, subjects were randomized to one of the following 2 treatments: Basal insulin+prandial TI Inhalation Powder Basal insulin+prandial SC rapid-acting insulin
At Week-1, subjects again completed the first three components of the Insulin Treatment Questionnaire (ITQ) for the purpose of assessing test-retest reliability only). After completing the questionnaire, subjects randomized to the TI Inhalation Powder group were trained on the MEDTONE® Inhaler using TECHNOSPHERE®/insulin (insulin-FDKP) inhalation powder; subjects in the comparator group were trained in the use of the NOVOLOG® pens; all subjects were trained in administration of LANTUS®. Additionally, all subjects were trained on a blood glucose monitoring (HBGM) meter provided at the beginning of the trial and diary and received diabetes education. Any training was repeated at Week 0, if needed.
At the beginning of the treatment phase, subjects had several titration/dose evaluation visits to adjust insulin therapy. Titration visits occurred once a week for the first 4 weeks. During Weeks 4 through 10, there were three telephone “visits” (at Week 6, Week 8, and Week 10) to titrate dose, if necessary. However, dose titration was allowed throughout the trial.
All subjects completed a 7-point blood glucose profile on any 3 days during the week immediately preceding each visit from Week 0 to Week 52. The 7 time points included samples from before breakfast and 2 hours after breakfast, before the mid-day meal and 2 hours after the mid-day meal, before the evening meal and 2 hours after the evening meal and at bedtime (7 time points a day, over 3 days). These blood glucose (BG) values were recorded in the HBGM diary that was collected at clinic visits. […]
A meal challenge test was performed at Week 4 (during dose titration), Week 26, and Week 52. […] Blood glucose (BG) was also measured using HBGM glucose meters to aid the Investigator in treatment decisions and values were obtained at −30, 0, 60, and 120 minutes during the meal challenge. […]

[3] = tested on: subjects with type 2 diabetes; experiment: Meal challenge test, Original Protocol (OP): blood glucose, endogenous glucose production, glucose disappearance; format: in vivo, human; conditions: 45 U insulin-FDKP, 12 U sc lispro, 4 mg EXUBERA, FIG. 6
Description: The insulin-FDKP formulation is administered to the subjects by oral inhalation using a MEDTONE® dry powder inhaler (MannKind Corp.). Methods and results below are described in terms of the Original Protocol (OP), which includes the meal challenge in 18 subjects with three treatments (EXUBERA®, lispro and TI) and Amendment 1 (A1), which includes 12 subjects treated with only TI and lispro. […] The subjects were screened and evaluated before, during and after the experiments and their data analyzed as described below. Subjects were selected based on several key inclusion criteria, including, male and female, having ≥18 and ≤70 years of age with clinical diagnosis of type 2 diabetes mellitus for 12 months. […] Blood glucose concentrations were measured at regular intervals from arterialized venous blood samples. […] EGP was determined by measurement of 6,6-^2H2 glucose applying the modified calculations for the non-steady state ([…], and D. T. Stein. Calculating glucose fluxes during meal tolerance test: a new computational approach. Am.J.Physiol Endocrinol.Metab 293 (2):[…]-[…], 2007). C-peptide concentrations were measured pre- and post-dose to assess endogenous insulin secretion. In addition, glucagon and free fatty acid concentrations were also determined.

[4] = tested on: subjects with type 2 diabetes; experiment: Meal challenge test, Amendment 1 (A1): blood glucose, endogenous glucose production, glucose disappearance; format: in vivo, human; conditions: 60 U and 90 U insulin-FDKP groups, 10 U lispro, FIG. 11
Description: Following the completion of the meal challenge, the data was analyzed as per the statistical analysis plan. […] The study was amended (A1) and included 12 subjects (10 were reenrolled from the first meal challenge), and only two treatments, which were 10 U lispro and 60 and 90 U TI. The doses were selected based on the relative bioavailability observed following the first meal challenge (OP), where under an assumption of linear kinetics, 10 U lispro and 60 U TI would result in similar exposure. The 90 U dose group was included to assess the effect of the highest dose group of TI studied in Phase 3 trials. Six of the 12 subjects received 60 U TI and the other 6 subjects received 90 U TI. All 12 subjects received 10 U lispro in a crossover fashion. Methods and results below are described in terms of the Original Protocol (OP), which includes the meal challenge in 18 subjects with three treatments (EXUBERA®, lispro and TI) and Amendment 1 (A1), which includes 12 subjects treated with only TI and lispro. […] The subjects were screened and evaluated before, during and after the experiments and their data analyzed as described below. […] Blood glucose concentrations were measured at regular intervals from arterialized venous blood samples. […]

[5] = human, in vivo
Description: The insulin-FDKP formulation is administered to the subjects by oral inhalation using a MEDTONE® dry powder inhaler (MannKind Corp.). Following the completion of the meal challenge, the data was analyzed as per the statistical analysis plan. […] The study was amended (A1) and included 12 subjects (10 were reenrolled from the first meal challenge), and only two treatments, which were 10 U lispro and 60 and 90 U TI. The doses were selected based on the relative bioavailability observed following the first meal challenge (OP), where under an assumption of linear kinetics, 10 U lispro and 60 U TI would result in similar exposure. The 90 U dose group was included to assess the effect of the highest dose group of TI studied in Phase 3 trials. Six of the 12 subjects received 60 U TI and the other 6 subjects received 90 U TI. All 12 subjects received 10 U lispro in a crossover fashion. Methods and results below are described in terms of the Original Protocol (OP), which includes the meal challenge in 18 subjects with three treatments (EXUBERA®, lispro and TI) and Amendment 1 (A1), which includes 12 subjects treated with only TI and lispro. […] The subjects were screened and evaluated before, during and after the experiments and their data analyzed as described below. […]

insulin glargine
period of relatively constant glucose lowering activity [1]: 24 h

insulin aspart
mean FPG at the end of the treatment period ([2]; 52 weeks): 161.3 (SD 68.2) mg/dL
average body weight gain over the 52-week treatment period [2]: 1.4 kg
HbA1c at Week 14 ([2]; baseline 8.41 (SD 0.92) TI arm, 8.48 (SD 0.97) insulin aspart arm): 8.07 (SD 1.09) %
mean decrease in fasting plasma glucose (FPG) over the 52-week treatment period ([2]; baseline 187.6 (SD 85.1) TI group, 180.8 (SD 86.9) comparator group): 23.4 (SD 103.1) mg/dL

insulin lispro
time at which glucose disappearance rate peaked after dosing [3]: about 120 minutes
time at which glucose disappearance rate peaked after dosing [4]: about 100 minutes
median tmax of insulin concentrations [5]: 1.25 h
